In ChEMBL document CHEMBL4118132, “Novel 5-methyl-2-phenylphenanthridium derivatives as FtsZ-targeting antibacterial agents from structural simplification of natural product sanguinarine” (2018):

Columns and labels:
Type in all cases: functional
Staphylococcus aureus [1] = test: Bactericidal activity against penicillin-susceptible Staphylococcus aureus ATCC 25923 assessed as bacterial levels at 8 ug/ml after 6 hrs by time-kill assay (reference value: 6.13 to 7.54 log10CFU/ml)
Streptococcus pyogenes [2] = test: Potency index, ratio of ciprofloxacin MIC to test compound MIC for penicillin-resistant Streptococcus pyogenes
[3] = system: Staphylococcus epidermidis; test: Antibacterial activity against penicillin-resistant Staphylococcus epidermidis clinical isolate after 24 hrs by broth microdilution method
Staphylococcus aureus [4] = test: Antibacterial activity against methicillin-resistant Staphylococcus aureus ATCC 43300 after 24 hrs by broth microdilution method; conditions: ATCC 43300, 24 h
Bacillus pumilus [5] = test: Potency index, ratio of ciprofloxacin MIC to test compound MIC for penicillin-susceptible penicillin-susceptible Bacillus pumilus ATCC 63202
Staphylococcus aureus [6] = test: Bactericidal activity against penicillin-susceptible Staphylococcus aureus ATCC 25923 assessed as bacterial levels at 32 ug/ml after 6 hrs by time-kill assay (reference value: 6.13 to 7.54 log10CFU/ml)
Streptococcus pyogenes [7] = test: Potency index, ratio of ciprofloxacin MIC to test compound MIC for penicillin-susceptible Streptococcus pyogenes
Staphylococcus aureus [8] = test: Bactericidal activity against penicillin-susceptible Staphylococcus aureus ATCC 25923 after 24 hrs by flat colony counting method; conditions: ATCC 25923, 24 h
Bacillus pumilus [9] = test: Potency index, ratio of oxacillin sodium MIC to test compound MIC for penicillin-susceptible penicillin-susceptible Bacillus pumilus ATCC 63202
Escherichia coli = test: Antibacterial activity against penicillin-susceptible Escherichia coli ATCC 25922 after 24 hrs by broth microdilution method; conditions: ATCC 25922, 24 h
Staphylococcus aureus [10] = test: Bactericidal activity against penicillin-susceptible Staphylococcus aureus ATCC 25923 assessed as bacterial levels at 32 ug/ml after 1 hr by time-kill assay (reference value: 6.13 to 6.14 log10CFU/ml)
Staphylococcus aureus [11] = test: Potency index, ratio of ciprofloxacin MIC to test compound MIC for methicillin-resistant Staphylococcus aureus ATCC 43300
Staphylococcus aureus [12] = test: Bactericidal activity against penicillin-susceptible Staphylococcus aureus ATCC 25923 assessed as bacterial levels at 16 ug/ml after 1 hr by time-kill assay (reference value: 6.13 to 6.14 log10CFU/ml)
Streptococcus pyogenes [13] = test: Antibacterial activity against penicillin-resistant Streptococcus pyogenes after 24 hrs by broth microdilution method
Staphylococcus aureus [14] = test: Bactericidal activity against penicillin-susceptible Staphylococcus aureus ATCC 25923 assessed as bacterial levels at 16 ug/ml after 6 hrs by time-kill assay (reference value: 6.13 to 7.54 log10CFU/ml)
Staphylococcus aureus [15] = test: Potency index, ratio of ciprofloxacin MIC to test compound MIC for penicillin-susceptible Staphylococcus aureus ATCC 25923
Staphylococcus aureus [16] = test: Potency index, ratio of ciprofloxacin MIC to test compound MIC for penicillin-resistant Staphylococcus aureus clinical isolate
Staphylococcus aureus [17] = test: Potency index, ratio of oxacillin sodium MIC to test compound MIC for methicillin-resistant Staphylococcus aureus ATCC 43300
Staphylococcus aureus [18] = test: Bactericidal activity against penicillin-susceptible Staphylococcus aureus ATCC 25923 assessed as bacterial levels at 16 ug/ml after 24 hrs by time-kill assay (reference value: 6.13 to 8.34 log10CFU/ml)

Cc1cc(-c2ccc(C(F)(F)F)cc2)cc2c3ccccc3c[n+](C)c12.[Cl-]
Activity (Staphylococcus aureus [1]): 6.07 log10CFU/ml
Ratio (Streptococcus pyogenes [2]): 32
MIC [3]: 0.125 µg/mL
MIC (Staphylococcus aureus [4]): 0.25 µg/mL
Ratio (Bacillus pumilus [5]): 133
Activity (Staphylococcus aureus [6]): 0 log10CFU/ml
Ratio (Streptococcus pyogenes [7]): 8
MBC (Staphylococcus aureus [8]): 16 µg/mL
Ratio (Bacillus pumilus [9]): 533
MIC (Escherichia coli): > 64 µg/mL
Activity (Staphylococcus aureus [10]): 5.57 log10CFU/ml
Ratio (Staphylococcus aureus [11]): 64
Activity (Staphylococcus aureus [12]): 5.89 log10CFU/ml
MIC (Streptococcus pyogenes [13]): 2 µg/mL
Activity (Staphylococcus aureus [14]): 5.42 log10CFU/ml
Ratio (Staphylococcus aureus [15]): 133
Ratio (Staphylococcus aureus [16]): 64
Ratio (Staphylococcus aureus [17]): 256
Activity (Staphylococcus aureus [18]): 0 log10CFU/ml
